Results: patent US8772235B2, “Compounds having peptides conjugated to bone targeting moieties and methods of making and using thereof” (The Governors of the University of Alberta, priority 2009, dated 2014)

What was measured:
[1] = Hydroxyapatite (HA) binding assay, bone mineral affinity; conditions: 10 μg sCT, 1 mg HA, 1 h, 100 mM phosphate buffer pH 7.0
Method: (§1) Bone targeting potential of sCT analogue was evaluated by determining the effect of sCT modification (due to chemical coupling) upon its bone mineral affinity. Specific volume of purified sCT analogue solution containing 10 μg of sCT was mixed with 1 mg Hydroxyapatite (HA) in 150 μL 100 mM phosphate buffer (pH 7.0) in microcentrifuge tubes in duplicate to give a final concentration of 66.67 μg/ml sCT. As a reference, control samples were incubated in tubes without HA (i.e., 0% of binding).
(§2) The tubes were incubated at room temperature on a shaker for 1 h, and centrifuged at 5000 g for 5 minutes to separate the HA from the supernatant. sCT concentration in the supernatant was determined using the BCA microprotein assay (Pierce, USA) as described above. HA centrifugate remaining after removal of supernatant was washed five times using 1 mL buffer each time and the last washing after centrifugation at 5000 g for 5 minutes was collected. Both the washings and the HA centrifugate were then analyzed for sCT as described above. The amount of sCT in the supernatant, washings and HA centrifugate was then inferred by measuring the absorbance at 562 nm, with a value of 100% for control samples without HA.

[2] = Circular dichroism, secondary structure of sCT, sCT-SMCC and sCT-BP; type: physicochemical; conditions: 20 mM acetate buffer pH 5.0, 400 μg/mL sCT or equivalent
Method: For a more detailed analysis of the influence of BP coupling on secondary structural confirmation of sCT, the circular dichroism (CD) spectrum of sCT, sCT-SMCC and sCT-BP was measured in the 20 mM acetate buffer pH 5.0. CD spectra were obtained with a ConvCD spectrophotometer instrument. Spectra were acquired over a wavelength range of 190 to 260 nm. The N2 flow rate was set at 5 l/min. The sample cuvette was cleaned with 20 mM Sodium Acetate buffer pH 5, and the spectra of test samples, which comprised of 400 μg/mL of sCT or equivalent the same buffer, were recorded with the corresponding buffer serving as blanks.

[3] = system: RAW 264.7 cells; assay: MTT cytotoxicity on osteoclast precursor RAW 264.7 cells (PEG series); type: cell-based, mouse; conditions: 100, 500 and 1000 nM sCT or equivalent, 4 hours incubation
Method: RAW 264.7 cells (ATCC VA, USA) were seeded on 96 well plates at an initial density of 2×10^4 cells/well and incubated in 200 μl GIBCO High Glucose 1× Dulbecco's Modified Eagle Medium (DMEM) (Invitrogen CA, USA) supplemented with 4.5 g/L D-Glucose, L-Glutamine, 110 mg/L Sodium Pyruvate, 10% heat inactivated fetal bovine serum (FBS) and 1% Penicillin-Streptomycin (10000 U/mL; Invitrogen) in a Thermo Fisher Scientific Water Jacketed CO2 incubator (37° C., 5% CO2) until the cells were 80% confluent.
After 72 hrs, media was replaced by 200 μl basic DMEM media without FBS and incubated for 30 minutes. […] After removing the supernatant and washing twice with phosphate buffer saline, purple formazan crystals formed were dissolved in 200 μl solubilization solution (in vitro toxicology assay kit, # TOX-1, Sigma Aldrich, St. Louis, USA) and the absorbance was measured at 570 nm using microplate reader. Experiment was performed for n=8 and the absorbance of wells containing cells without sCT treatment was considered as 100% viable and used to calculate the relative viability of sCT treated cells.
In all in vitro and in vivo bioactivity assay the maximum concentration used was equivalent to 100 nM sCT. However, cytoxicity was determined for the concentration up to 1000 nM sCT or equivalent. […]

[4] = Effect on plasma calcium level in normal rats (SMCC series); type: in vivo, rat; conditions: 20 IU sCT/kg equivalent, subcutaneous
Method: Pharmacodynamic response of sCT analogue was evaluated by analyzing plasma calcium concentration in the rat model. Sprague Dawley female rats weighing 230-260 g (about 6 weeks old) were purchased from Charles River, USA and housed at the University of Alberta Animal Holding Unit. All experimental protocols were approved by the Animals Ethics Committee of the University of Alberta. The rats were divided randomly into five groups of 3 animals each and the pharmacodynamic response was assessed following subcutaneous administration of the sCT or analogue equivalent to 20 IU sCT/kg body weight. Rats were anesthetized using Isoflurane inhalation anesthesia and the 200 μl blood samples were obtained in heparinized Eppendorf microtubes before drug injection. Then 100 μl of sCT or equivalent dose in 20 mM Sodium Acetate buffer pH 5 was sub cu injected and the blood samples were collected 1, 2, 3 and 4 hrs post injection from jugular vein. Blood plasma was obtained by centrifuging the samples at 5000 rpm for 10 min and collecting the supernatant. Plasma calcium level was assayed by QuantiChrom™ Calcium Assay Kit (BioAssay Systems, CA USA) and the plasma phosphate level was assayed by QuantiChrom™ Phosphate Assay Kit (BioAssay Systems, CA USA).

[5] = Bone mineral specificity: tri-calcium phosphate binding assay; conditions: 1 h, 100 mM phosphate buffer pH 7
Method: as §1, §2
Bone mineral specificity of sCT analogue was then determined in the above manner using HA, calcium carbonate, calcium pyrophosphate, tricalcium phosphate and calcium oxalate.

[6] = Circular dichroism, secondary structure of sCT, sCT-PEG and sCT-PEG-BP; type: physicochemical; conditions: 20 mM acetate buffer pH 5.0, ~400 μg/mL sCT or equivalent
Method: For a more detailed analysis of the influence of structural alteration of sCT on secondary structure of sCT analogue, the circular dichroism (CD) spectrum of sCT, sCT-PEG and sCT-PEG-BP was measured in the 20 mM acetate buffer pH 5.0. CD spectra were obtained with a ConvCD spectrophotometer instrument. Spectra were acquired over a wavelength range of 190 to 260 nm. The N2 flow rate was set at 5 l/min. The sample cuvette (100 μL) was cleaned with 20 mM Sodium Acetate buffer pH 5, and the spectra of test samples, which comprised of ˜400 μg/mL of sCT or equivalent the same buffer, were recorded with the corresponding buffer serving as blanks.

## Salmon calcitonin [sCT, reference compound]
[1]
  sCT bound in HA: did not significantly bind to HA
[2]
  secondary structure by CD spectrum: random coil conformation
[3]
  cytotoxicity (absorbance of formazan solution) compared to untreated media: low levels of cytotoxicity
[4]; 4 hour post dosing
  percentage of plasma calcium reduction: 32.03±2.11%
[4]; first hour, vs acetate buffer controls
  percentage of plasma calcium reduction: 20.33±5.5%
[4]; second hour
  percentage of plasma calcium reduction: 28.98±4.65%
[4]; third hour
  percentage of plasma calcium reduction: 29.85±4.11%
[5]
  sCT bound to Tri-Calcium Phosphate: no significant difference in the affinity
[6]
  secondary structure by CD spectrum: random coil conformation
